Measurements: patent US7468274B2, “Single cell analysis of HIV replication capacity and drug resistance” (priority 2004, dated 2008)
Several values for one entry are separate records, joined by “and”; a condition that tells them apart may be missing. Equal values may be shown once. Entries after “also recorded” stand apart in the source; their conditions may differ. Read-outs that look alike come from different tables or passages of the source.

How the values were obtained:
[1] = tested on: Pt2019-1-2 patient-derived drug-resistant HIV-1 isolate; assay type: cell-based
[2] = tested on: pseudotyped reporter viruses carrying the NL4-3 gag-pol sequence (wild type); assay type: cell-based, HIV-1
[3] = tested on: Pt2019-1-1 patient-derived drug-resistant HIV-1 isolate; assay type: cell-based
[4] = in vivo; cited from earlier work

Nc1ccn([C@@H]2CS[C@H](CO)O2)c(=O)n1 [3TC, lamivudine]
Replication Index ([1]; concn 12.5 (head prints p.M)): 0.00053
Drug Resistance Index ([1]; concn 12.5 (head prints p.M; text 12.5 μM)): 0.001
Drug Resistance Index [2]: 0.002
Replication Index (replication capacity index x drug resistance index) [2]: 0.002
Drug Resistance Index [3]: 1
Replication Index ([3]; Pt2019-1-1, concn 12.5 (head prints p.M)): 0.42
Drug Resistance Index ([3]; Pt2019-1-1, concn 12.5 (head prints p.M; text 12.5 μM)): 0.8

O=C1Nc2ccc(Cl)cc2[C@@](C#CC2CC2)(C(F)(F)F)O1 [EFV, efavirenz]
Cmin/IC50 ratio (published Cmin to IC50 measured in this system) [2]: > 1,000 fold

Cc1cn([C@H]2C[C@H](N=[N+]=[N-])[C@@H](CO)O2)c(=O)[nH]c1=O [AZT, zidovudine]
% GFP-positive target cells [2]: 7.61% and 6.70% and 7.59% and 6.71%
Drug resistance index (replication with drug / without drug) [2]: 0.356
Mean % GFP-positive target cells [2]: 7.15%

Cc1cn([C@H]2C=C[C@@H](CO)O2)c(=O)[nH]c1=O [d4T, stavudine]
% GFP-positive target cells [2]: 6.83% and 7.04% and 5.74%
Cmax relative to IC50 measured in this system [2]: close to or below; also recorded: below
Drug resistance index (replication with drug / without drug) [2]: 0.325
Mean % GFP-positive target cells [2]: 6.54%

O=c1[nH]cnc2c1ncn2[C@H]1CC[C@@H](CO)O1 [ddI, didanosine]
Cmax [4]: 6.78 µM
Cmax relative to IC50 measured in this system [2]: close to or below
Cmax relative to IC90 measured in this system [2]: below
